Read-outs that look alike come from different tables or passages of the source.
What was measured:
Format in all cases: biochemical
Cathepsin L = Cathepsin L (Homo sapiens, UniProt P07711); assay: Cathepsin L inhibition, fluorogenic peptide substrate kinetic assay (selectivity); details: ratio of cathepsin L inhibition constant to cathepsin S inhibition constant
Cathepsin K = biological target: T1, Cathepsin K (Homo sapiens, UniProt P43235); assay: Cathepsin K inhibition, fluorogenic peptide substrate kinetic assay (selectivity); details: ratio of cathepsin K inhibition constant to cathepsin S inhibition constant
T1 sequence (P43235 115-329): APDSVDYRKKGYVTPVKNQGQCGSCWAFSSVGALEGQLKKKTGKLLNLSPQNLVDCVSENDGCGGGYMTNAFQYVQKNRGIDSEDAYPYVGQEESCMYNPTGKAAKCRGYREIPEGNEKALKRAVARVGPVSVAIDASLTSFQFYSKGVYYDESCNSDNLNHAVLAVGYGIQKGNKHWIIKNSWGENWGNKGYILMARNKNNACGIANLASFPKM

Cathepsin B = Cathepsin B (Homo sapiens, UniProt P07858); assay: Cathepsin B inhibition, fluorogenic peptide substrate kinetic assay (selectivity); details: ratio of cathepsin B inhibition constant to cathepsin S inhibition constant;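 note: value is the cathepsin B inhibition constant divided by the cathepsin S one, each from kinetic fluorescence readings (ex 380 nm, em 450 nm) of a 10 µM coumarin peptide substrate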
Cathepsin S = Cathepsin S (Homo sapiens, UniProt P25774); assay: Cathepsin S inhibition, fluorogenic peptide substrate kinetic assay;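 note: cleavage rate of a coumarin-labelled peptide substrate (50 µM) read as fluorescence increase at Ex 380 nm and Em 450 nm, relative to inhibitor-free control reactions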
[1] = Cathepsin S inhibition constant, pH5.5, 20 minutes preincubation at room temperature, read-out: Ki Cat. S

Chain of Cathepsin S (P25774 115-331, species assumed): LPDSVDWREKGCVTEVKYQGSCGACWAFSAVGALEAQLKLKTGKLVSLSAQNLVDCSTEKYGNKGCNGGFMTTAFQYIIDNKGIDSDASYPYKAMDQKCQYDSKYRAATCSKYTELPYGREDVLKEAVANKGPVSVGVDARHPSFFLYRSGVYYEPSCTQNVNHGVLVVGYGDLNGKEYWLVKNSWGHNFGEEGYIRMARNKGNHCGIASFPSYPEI
Chain of Cathepsin L (P07711 114-333, species assumed): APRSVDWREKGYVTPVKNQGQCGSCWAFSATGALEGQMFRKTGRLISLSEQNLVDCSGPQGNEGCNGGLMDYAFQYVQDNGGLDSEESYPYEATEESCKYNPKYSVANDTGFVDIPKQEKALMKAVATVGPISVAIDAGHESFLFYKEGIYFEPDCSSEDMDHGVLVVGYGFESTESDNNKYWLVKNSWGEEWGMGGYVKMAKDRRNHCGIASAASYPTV

Row | Selectivity for Cat. S over Cat. L (Cathepsin L) | Selectivity for Cat. S over Cat. K (Cathepsin K) | Selectivity for Cat. S over Cat. B (Cathepsin B) | Ki (Cathepsin S; [1]) [nM] | Ki (Cathepsin S) [nM] | Compound
1 | ++ (++, >100) | ++ (++, >100) | ++ (++, >100) | 100 to 1000 | – | C[C@@H](CNc1ccc(OC(F)(F)F)cc1)NC(=O)[C@@H](CC(=O)N1CCOCC1)c1ccc(F)cc1 [Example 62, 2-(S)-(4-Fluoro-phenyl)-N-[1-(S)-methyl-2-(4-trifluoromethoxy-phenylamino)-ethyl]-4-morpholin-4-yl-4-oxo-butyramide]
2 | + (+, >10) | + (+, >10) | + (+, >10) | 1000 to 10000 | – | C[C@@H](CNc1ccc(OC(F)(F)F)cc1)NC(=O)[C@@H](CC(=O)N1CCOCC1)c1ccccc1 [Example 61, N-[1-(S)-Methyl-2-(4-trifluoromethoxy-phenylamino)-ethyl]-4-morpholin-4-yl-4-oxo-2-(S)-phenyl-butyramide]
3 | +++ (+++, >1000) | ++ (++, >100) | +++ (+++, >1000) | < 100 | – | CC(C)[C@@H](CN1CC(C)(C)c2cc(F)ccc21)NC(=O)[C@@H](CC(=O)N1CCOCC1)c1ccc(C(F)(F)F)cc1 [Example 68, N-[1-(S)-(5-Fluoro-3,3-dimethyl-2,3-dihydro-indol-1-ylmethyl)-2-methyl-propyl]-4-morpholin-4-yl-4-oxo-2-(S)-(4-trifluoromethyl-phenyl)-butyramide]
4 | ++ (++, >100) | ++ (++, >100) | +++ (+++, >1000) | – | < 100 | C[C@@H](CNc1ccc(OC(F)(F)F)cc1)NC(=O)[C@@H](CC(=O)N1CCOCC1)CC1CCCC1 [Example 15, 2-(R)-Cyclopentylmethyl-N-[1-(S)-methyl-2-(4-trifluoromethoxy-phenylamino)-ethyl]-4-morpholin-4-yl-4-oxo-butyramide]
5 | + (+, >10) | + (+, >10) | + (+, >10) | – | 1000 to 10000 | C[C@@H](CNc1ccc(OC(F)(F)F)cc1)NC(=O)[C@@H](CC(=O)N1CCOCC1)c1ccc(C(F)(F)F)cc1 [Example 60, N-[1-(S)-Methyl-2-(4-trifluoromethoxy-phenylamino)-ethyl]-4-morpholin-4-yl-4-oxo-2-(S)-(4-trifluoromethyl-phenyl)-butyramide]
6 | ++ (++, >100) | + (+, >10) | +++ (+++, >1000) | – | < 100 | CC(C)[C@@H](CNc1ccc(OC(F)(F)F)cc1)NC(=O)[C@@H](CC(=O)N1CCOCC1)c1ccc(F)cc1 [Example 41, 2-(S)-(4-Fluoro-phenyl)-N-{2-methyl-1-(S)-[(4-trifluoromethoxy-phenylamino)-methyl]-propyl}-4-morpholin-4-yl-4-oxo-butyramide]
7 | ++ (++, >100) | ++ (++, >100) | ++ (++, >100) | – | 100 to 1000 | CC(C)[C@@H](CNc1ccc(OC(F)(F)F)cc1)NC(=O)[C@H](CC(=O)N1CCOCC1)c1ccc(Cl)cc1 [Example 43, 2-(R)-(4-Chloro-phenyl)-N-{2-methyl-1-(S)-[(4-trifluoromethoxy-phenylamino)-methyl]-propyl}-4-morpholin-4-yl-4-oxo-butyramide]
8 | ++ (++, >100) | +++ (+++, >1000) | ++ (++, >100) | – | 100 to 1000 | CC(C)[C@@H](CNc1ccc(OC(F)(F)F)cc1)NC(=O)[C@@H](CC(=O)N1CCOCC1)c1ccc(C(F)(F)F)cc1 [Example 55, N-{2-Methyl-1-(S)-[(4-trifluoromethoxy-phenylamino)-methyl]-propyl}-4-morpholin-4-yl-4-oxo-2-(S)-(4-trifluoromethyl-phenyl)-butyramide]

Continued, molecule first:

Row | Compound | Selectivity for Cat. S over Cat. L (Cathepsin L) | Selectivity for Cat. S over Cat. K (Cathepsin K) | Selectivity for Cat. S over Cat. B (Cathepsin B) | Ki (Cathepsin S; [1]) [nM] | Ki (Cathepsin S) [nM]
9 | CC(=O)N1CCN(C(=O)[C@H](CC2CCCCC2)OC(=O)N[C@@H](C)CN2c3ccc(F)cc3CC2(C)C)CC1 [Example 94, (S,S)-[2-(5-Fluoro-2,2-dimethyl-2,3-dihydro-indol-1-yl)-1-methyl-ethyl]-carbamic acid 2-(4-acetyl-piperazin-1-yl)-1-cyclohexylmethyl-2-oxo-ethyl ester] | + (+, >10) | + (+, >10) | + (+, >10) | 1000 to 10000 | –
10 | COc1ccc(NC[C@@H](NC(=O)[C@@H](CC(=O)N2CCOCC2)c2ccc(F)cc2)C(C)C)cn1 [Example 64, 2-(S)-(4-Fluoro-phenyl)-N-{1-(S)-[(6-methoxy-pyridin-3-ylamino)-methyl]-2-methyl-propyl}-4-morpholin-4-yl-4-oxo-butyramide] | + (+, >10) | + (+, >10) | ++ (++, >100) | 100 to 1000 | –
11 | CC1(C)CN([C@H]2COC[C@@H]2NC(=O)O[C@@H](CC2CCCCC2)C(=O)N2CCOCC2)c2ccc(F)cc21 [Example 7, [4-(R)-(5-Fluoro-3,3-dimethyl-2,3-dihydro-indol-1-yl)-tetrahydro-furan-3-(R)-yl]-carbamic acid 1-(S)-cyclohexylmethyl-2-morpholin-4-yl-2-oxo-ethyl ester] | + (+, >10) | + (+, >10) | + (+, >10) | 1000 to 10000 | –
12 | O=C(N[C@@H](CCc1ccccc1)CNc1ccc(OC(F)(F)F)cc1)[C@H](CCC1CCCC1)CC(=O)N1CCOCC1 [Example 37, 2-(R)-(2-Cyclopentyl-ethyl)-4-morpholin-4-yl-4-oxo-N-{3-phenyl-1-(S)-[(4-trifluoromethoxy-phenylamino)-methyl]-propyl}-butyramide] | + (+, >10) | ++ (++, >100) | ++ (++, >100) | – | < 100
13 | CC(=O)N1CCN(C(=O)C[C@@H](CC2CCCCC2)C(=O)N[C@@H](C)CNc2ccc(OC(F)(F)F)cc2)CC1 [Example 52, 4-(4-Acetyl-piperazin-1-yl)-2-(R)-cyclohexylmethyl-N-[1-(S)-methyl-2-(4-trifluoromethoxy-phenylamino)-ethyl]-4-oxo-butyramide] | ++ (++, >100) | + (+, >10) | ++ (++, >100) | 100 to 1000 | –
14 | O=C(NCCNc1ccc(F)cc1)[C@@H](CC(=O)N1CCOCC1)CC1CCCCC1 [Example 6, 2-(R)-Cyclohexylmethyl-N-[2-(4-fluoro-phenylamino)-ethyl]-4-morpholin-4-yl-4-oxo-butyramide] | + (+, >10) | + (+, >10) | + (+, >10) | – | 1000 to 10000
15 | CC(C)[C@@H](CN1CC(C)(C)c2cc(F)ccc21)NC(=O)O[C@H](C(=O)N1CCOCC1)C1CCCCC1 [Example 111, [1-(S)-(5-Fluoro-3,3-dimethyl-2,3-dihydro-indol-1-ylmethyl)-2-methyl-propyl]-carbamic acid 1-(S)-cyclohexyl-2-morpholin-4-yl-2-oxo-ethyl ester] | ++ (++, >100) | + (+, >10) | +++ (+++, >1000) | < 100 | –
16 | Cc1cc(NC[C@H](C)NC(=O)O[C@@H](CC2CCCCC2)C(=O)N2CCOCC2)no1 [Example 91, [1-(S)-Methyl-2-(5-methyl-isoxazol-3-ylamino)-ethyl]-carbamic acid 1-(S)-cyclohexylmethyl-2-morpholin-4-yl-2-oxo-ethyl ester] | + (+, >10) | + (+, >10) | + (+, >10) | 1000 to 10000 | –

— patent US7732449B2, “Inhibitors of cathepsin S” (IRM LLC, priority 2003, dated 2010)
